Values joined by “and” are separate entries in the source; they are usually repeats but may differ in a detail not shown here. Equal entries are not always repeated. Toxic doses and inconclusive results are not listed.

This test concerns CD2F1 mice, L1210 leukemia ip, survival T/C. In words: NCI In Vivo Anticancer Drug Screen. Data for tumor model L1210 Leukemia (intraperitoneal) in CD2F1 (CDF1) mice. Conditions: higher = longer survival. A digest of the protocol: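 Implant tumor; dose compound or vehicle; measure endpoint in both groups; report treated divided by control.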
Setting [1] is: endpoint: mean survival time, dose: 0.5 mg/kg/injection, schedule: Q01DX001 (ip), vehicle: saline.
The mark [2] stands for this setting: endpoint: mean survival time, dose: 1.0 mg/kg/injection, schedule: Q01DX001 (ip), vehicle: saline.
The mark [3] stands for this setting: endpoint: mean survival time, dose: 2.0 mg/kg/injection, schedule: Q01DX001 (ip), vehicle: saline.

For `COc1cccc2c1C(=O)c1c(O)c3c(c(O)c1C2=O)CC(O)(C(C)=O)CC3OC1CC(N)C(O)C(C)O1` (stereo not given), the T/C (endpoint: mean survival time, dose: 0.25 mg/kg/injection, schedule: Q01DX001 (ip), vehicle: saline) was 112 % of control; the T/C under setting [1] was 109 % of control; the T/C (endpoint: mean survival time, dose: 0.63 mg/kg/injection, schedule: Q01DX009 (ip), vehicle: water) is 105 % of control; the T/C under setting [2] is 115 % of control; the T/C (endpoint: mean survival time, dose: 1.25 mg/kg/injection, schedule: Q01DX009 (ip), vehicle: water) is 108 % of control; the T/C under setting [3] is 121 % of control. In addition, the T/C is 115 % of control and 105 % of control (endpoint: mean survival time, dose: 2.5 mg/kg/injection, schedule: Q01DX009 (ip), vehicle: water); 105 % of control (endpoint: mean survival time, dose: 5.0 mg/kg/injection, schedule: Q01DX009 (ip), vehicle: water); 117 % of control (endpoint: mean survival time, dose: 10.0 mg/kg/injection, schedule: Q01DX009 (ip), vehicle: water); 117 % of control and 105 % of control (endpoint: mean survival time, dose: 20.0 mg/kg/injection, schedule: Q01DX009 (ip), vehicle: water); 117 % of control (endpoint: mean survival time, dose: 40.0 mg/kg/injection, schedule: Q01DX009 (ip), vehicle: water); 105 % of control (endpoint: mean survival time, dose: 80.0 mg/kg/injection, schedule: Q01DX009 (ip), vehicle: water).
Regarding `CCOC(=O)/C=C/C1=CCCCC1`, the T/C (endpoint: mean survival time, dose: 50.0 mg/kg/injection, schedule: Q01DX009 (ip), vehicle: saline with Tween-80) was 101 % of control; the T/C (endpoint: mean survival time, dose: 100.0 mg/kg/injection, schedule: Q01DX009 (ip), vehicle: saline with Tween-80) was 96 % of control; the T/C (endpoint: mean survival time, dose: 200.0 mg/kg/injection, schedule: Q01DX009 (ip), vehicle: saline with Tween-80) was 108 % of control.
On to `C1CN1c1nc(N2CC2)nc(N2CC2)n1`, for which the T/C is, setting by setting: (endpoint: mean survival time, dose: 0.05 mg/kg/injection, schedule: Q01DX009 (ip), vehicle: saline) 100 % of control; (endpoint: mean survival time, dose: 0.06 mg/kg/injection, schedule: Q01DX009 (ip), vehicle: saline) 150 % of control; (endpoint: mean survival time, dose: 0.06 mg/kg/injection, schedule: Q03HX008 (ip), vehicle: saline) 100 % of control; (endpoint: mean survival time, dose: 0.06 mg/kg/injection, schedule: Q03HX016 (ip), vehicle: saline) 95 % of control and 97 % of control; (endpoint: mean survival time, dose: 0.06 mg/kg/injection, schedule: Q03HX024 (ip), vehicle: saline) 113 % of control; (endpoint: mean survival time, dose: 0.1 mg/kg/injection, schedule: Q01DX009 (ip), vehicle: saline) 107 % of control. Besides, the T/C (endpoint: mean survival time, dose: 0.12 mg/kg/injection, schedule: Q01DX009 (ip), vehicle: saline) is 215 % of control and 100 % of control; the T/C (endpoint: mean survival time, dose: 0.13 mg/kg/injection, schedule: Q03HX008 (ip), vehicle: saline) is 110 % of control; the T/C (endpoint: mean survival time, dose: 0.13 mg/kg/injection, schedule: Q03HX016 (ip), vehicle: saline) is 104 % of control and 110 % of control; the T/C (endpoint: mean survival time, dose: 0.13 mg/kg/injection, schedule: Q03HX024 (ip), vehicle: saline) is 124 % of control; the T/C (endpoint: mean survival time, dose: 0.2 mg/kg/injection, schedule: Q01DX009 (ip), vehicle: saline) is 117 % of control; the T/C (endpoint: mean survival time, dose: 0.25 mg/kg/injection, schedule: Q01DX005 (ip), vehicle: saline) is 117 % of control. Moreover, the T/C runs as follows: (endpoint: mean survival time, dose: 0.25 mg/kg/injection, schedule: Q01DX009 (ip), vehicle: saline) 109 % of control; (endpoint: mean survival time, dose: 0.25 mg/kg/injection, schedule: Q03HX024 (ip), vehicle: saline) 174 % of control; (endpoint: mean survival time, dose: 0.4 mg/kg/injection, schedule: Q01DX009 (ip), vehicle: saline) 155 % of control; under setting [1], 114 % of control; (endpoint: mean survival time, dose: 0.5 mg/kg/injection, schedule: Q01DX005 (ip), vehicle: saline) 150 % of control; (endpoint: mean survival time, dose: 0.5 mg/kg/injection, schedule: Q01DX007 (ip), vehicle: saline) 183 % of control. Besides, the T/C is, setting by setting: (endpoint: mean survival time, dose: 0.5 mg/kg/injection, schedule: Q03HX008 (ip), vehicle: saline) 185 % of control; (endpoint: mean survival time, dose: 0.5 mg/kg/injection, schedule: Q03HX016 (ip), vehicle: saline) 183 % of control; (endpoint: mean survival time, dose: 0.5 mg/kg/injection, schedule: Q03HX024 (ip), vehicle: saline) 101 % of control; (endpoint: mean survival time, dose: 0.5 mg/kg/injection, schedule: Q08DX002 (ip), vehicle: saline) 107 % of control; (endpoint: mean survival time, dose: 0.5 mg/kg/injection, schedule: Q11DX002 (ip), vehicle: saline) 100 % of control; under setting [2], 190 % of control. Also, the T/C by setting is: (endpoint: mean survival time, dose: 1.0 mg/kg/injection, schedule: Q01DX005 (ip), vehicle: saline) 86 % of control; (endpoint: mean survival time, dose: 1.0 mg/kg/injection, schedule: Q01DX007 (ip), vehicle: saline) 92 % of control; (endpoint: mean survival time, dose: 1.0 mg/kg/injection, schedule: Q03DX003 (ip), vehicle: saline) 183 % of control; (endpoint: mean survival time, dose: 1.0 mg/kg/injection, schedule: Q08DX002 (ip), vehicle: saline) 204 % of control; (endpoint: mean survival time, dose: 1.0 mg/kg/injection, schedule: Q11DX002 (ip), vehicle: saline) 97 % of control; under setting [3], 154 % of control and 157 % of control. The T/C is 211 % of control (endpoint: mean survival time, dose: 2.0 mg/kg/injection, schedule: Q03DX003 (ip), vehicle: saline); 184 % of control (endpoint: mean survival time, dose: 2.0 mg/kg/injection, schedule: Q08DX002 (ip), vehicle: saline); 100 % of control (endpoint: mean survival time, dose: 2.0 mg/kg/injection, schedule: Q11DX002 (ip), vehicle: saline); 169 % of control and 338 % of control (endpoint: mean survival time, dose: 3.0 mg/kg/injection, schedule: Q01DX001 (ip), vehicle: saline); 120 % of control (endpoint: mean survival time, dose: 4.0 mg/kg/injection, schedule: Q01DX001 (ip), vehicle: saline); 102 % of control (endpoint: mean survival time, dose: 4.0 mg/kg/injection, schedule: Q08DX002 (ip), vehicle: saline). Also, the T/C reads like this: (endpoint: mean survival time, dose: 4.0 mg/kg/injection, schedule: Q11DX002 (ip), vehicle: saline) 153 % of control; (endpoint: mean survival time, dose: 62.0 micrograms/kg/injection, schedule: Q01DX009 (ip), vehicle: saline) 123 % of control; (endpoint: mean survival time, dose: 125.0 micrograms/kg/injection, schedule: Q01DX009 (ip), vehicle: saline) 173 % of control; (endpoint: median survival time, dose: 0.25 mg/kg/injection, schedule: Q01DX009 (ip), vehicle: saline) 100 % of control; (endpoint: median survival time, dose: 0.5 mg/kg/injection, schedule: Q01DX009 (ip), vehicle: saline) 150 % of control and 185 % of control; (endpoint: median survival time, dose: 1.0 mg/kg/injection, schedule: Q01DX009 (ip), vehicle: saline) 121 % of control and 100 % of control.
Take `Cc1ccc(C(SCC(N)C(=O)O)(c2ccc(C)cc2)c2ccc(C)cc2)cc1` (stereo not given): the T/C runs as follows: (endpoint: mean survival time, dose: 100.0 mg/kg/injection, schedule: Q01DX009 (ip), vehicle: saline) 175 % of control; (endpoint: mean survival time, dose: 200.0 mg/kg/injection, schedule: Q01DX009 (ip), vehicle: saline) 210 % of control; (endpoint: mean survival time, dose: 400.0 mg/kg/injection, schedule: Q01DX009 (ip), vehicle: saline) 200 % of control.
As for `COc1ccc2c(c1OC(C)=O)-c1cc(OC(C)=O)cc3c1C(C2)NCC3` (stereo not given), the T/C reads like this: (endpoint: mean survival time, dose: 3.13 mg/kg/injection, schedule: Q04DX003 (ip), vehicle: saline with Tween-80) 96 % of control; (endpoint: mean survival time, dose: 6.25 mg/kg/injection, schedule: Q04DX003 (ip), vehicle: saline with Tween-80) 94 % of control; (endpoint: mean survival time, dose: 12.5 mg/kg/injection, schedule: Q04DX003 (ip), vehicle: saline with Tween-80) 94 % of control; (endpoint: mean survival time, dose: 25.0 mg/kg/injection, schedule: Q04DX003 (ip), vehicle: saline with Tween-80) 94 % of control.
Turning to `Clc1ccc(-n2cccc2)cc1`, the T/C is, setting by setting: (endpoint: mean survival time, dose: 100.0 mg/kg/injection, schedule: Q04DX003 (ip), vehicle: saline with Tween-80) 98 % of control; (endpoint: mean survival time, dose: 200.0 mg/kg/injection, schedule: Q04DX003 (ip), vehicle: saline with Tween-80) 91 % of control; (endpoint: mean survival time, dose: 400.0 mg/kg/injection, schedule: Q04DX003 (ip), vehicle: saline with Tween-80) 98 % of control.
As to `CC1(C)C(=O)C(Cl)C(c2ccccc2)=C1c1ccccc1` (stereo not given), the T/C is 101 % of control (endpoint: mean survival time, dose: 100.0 mg/kg/injection, schedule: Q04DX002 (ip), vehicle: saline with Tween-80); 96 % of control (endpoint: mean survival time, dose: 200.0 mg/kg/injection, schedule: Q04DX002 (ip), vehicle: saline with Tween-80); 101 % of control (endpoint: mean survival time, dose: 400.0 mg/kg/injection, schedule: Q04DX002 (ip), vehicle: saline with Tween-80).

The values are drawn from PubChem BioAssay AID256 (DTP/NCI, 2004).
